# Assays:
# [1] = In vivo pharmacokinetic study on cynomolgus monkeys, intravenous; details: for AUC: cynomolgus monkey, plasma, iv, 1 mg/kg; for AUC Differentiation (%): D8-enasidenib vs enasidenib
# Method: Test compounds were dissolved to yield a final concentration at 0.2 mg/mL. The study conducted formulation analysis by HPLC. The four animals assigned to the study had body weights within ±20% of the mean body weight. The study was conducted in a cross-over matter with four phases to minimize individual difference. The dose level was 1 mg/Kg and the drug was administrated through intravenous (IV) route.
# Blood samples (approximately 1.2 mL/sample) were collected from the […] vein at appropriate time points. Samples were placed in tubes containing sodium heparin and stored on ice until centrifuged. Blood samples were collected pre-dose and post-dose at post-dose 2 minutes, 5 minutes, 15 minutes, 30 minutes, 1 hour, 2 hours, 3 hours, 4 hours, 6 hours, 8 hours and 24 hours. The blood samples were centrifuged at approximately 8,000 rpm for 6 minutes at 2-8° C. Plasma samples were then collected and stored frozen at approximately −80° C. until analysis. The bioanalytical work was performed using a LC-MS/MS system.
# [2] = target: T1, IDH2 R140Q (Homo sapiens, UniProt P48735, R140Q); assay: IC50 measurement against IDH2 R140Q (diaphorase/resazurin detection); assay type: biochemical
# T1 sequence (P48735 40-452 R140Q): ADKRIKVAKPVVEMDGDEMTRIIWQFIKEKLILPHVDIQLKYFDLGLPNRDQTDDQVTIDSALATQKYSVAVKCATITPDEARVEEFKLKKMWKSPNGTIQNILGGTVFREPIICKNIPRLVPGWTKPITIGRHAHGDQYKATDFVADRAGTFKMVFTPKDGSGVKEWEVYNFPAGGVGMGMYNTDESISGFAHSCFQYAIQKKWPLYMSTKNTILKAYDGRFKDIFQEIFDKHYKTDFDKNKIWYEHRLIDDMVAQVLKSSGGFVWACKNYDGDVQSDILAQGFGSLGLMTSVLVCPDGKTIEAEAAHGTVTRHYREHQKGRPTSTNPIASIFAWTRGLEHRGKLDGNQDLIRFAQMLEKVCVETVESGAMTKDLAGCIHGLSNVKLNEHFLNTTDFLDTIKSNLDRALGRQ
# Method: Compounds were tested in 10-dose IC50 mode with 3-fold serial dilution at a starting concentration of 10 μM. Substrate and co-factor were 8000 μM α-Ketoglutarate and 15 μM NADPH (reduced form of nicotinamide adenine dinucleotide phosphate). The reaction was carried out by mixing compound solutions with enzyme (IDH2 R140Q) and pre-incubated for 60 minutes. Then a four-fold substrate mixture was delivered to initiate the reaction. The solutions were incubated for 45 minutes at room temperature. Detection was performed using diaphorase and resazurin and measured in Envision (Perkin-Elmer). (Ex/Em=535/590 nm).
# [3] = Drug metabolism study with rat and human liver microsomes fortified with NADPH; assay type: in vitro ADME; details: 10 μM, 1 mg/mL protein, 37° C., 60 minutes
# Method: This study was carried out to evaluate drug metabolism of the test compounds by rat and human microsomes. Test compounds were incubated with liver microsomes of rat (BioreclamationIVT, Lot# NNK) and human (BioreclamationIVT, Lot# HPG) at 37° C. for 60 minutes. The substrate compound concentration was at 10 μM and final protein concentration in incubation mixtures was 1 mg/mL. Reaction was stopped by adding three fold acetonitrile to the reaction mixture. The samples were vortexed and centrifuged to precipitate the proteins. The supernatants were transferred to clean tubes for drying under a stream of N2. The dried residues were reconstituted with 30% acetonitrile. Aliquots were injected into an LC/UV/MS system for metabolite ID and profiling. The LC/UV/MS system was Agilent 1100 HPLC (pumps, autosampler and PDA) interfaced to LTQ ion trap mass spectrometer (ThermoFinnigan). HPLC column was Luna C18(2) column, 250×2.0 mm, 5 The HPLC mobile phase gradient system were water and acetonitrile with 0.05% trifluoroacetic acid in both solvents.
# The experimental data indicated oxidation (hydroxylation) and de-alkylation were two of major metabolism paths for enasidenib and D8-enasidenib. For oxidation on aromatic ring, the molecular weights of hydroxylation products were the original ones plus an oxygen (+16). The C—H bond of enasidenib is replaced by C—OH. For oxidation on side chains, the molecular weights of hydroxylation products are different for enasidenib vs. D8-enasidenib. For enasidenib, the C—H bond is also replaced by C—OH and the difference in molecular weights is 16. However, since D8-enasidenib loses a deuterium due to hydroxylation (C-D is replaced by C—OH), the difference of its molecular weight to the original is 15 (that is +O+H−D=15). (FIG. 2) Thus, the hydroxylation products for aromatic ring and side chain for enasidenib and D8-enasidenib can be identified.
# [4] = Average of four animals, 1 mg/Kg IV, monkey
# [5] = animal MK-101, 1 mg/Kg IV, monkey
# [6] = animal MK-201, 1 mg/Kg IV, monkey
# [7] = animal MK-301, 1 mg/Kg IV, monkey
# [8] = animal MK-401, 1 mg/Kg IV, monkey
Structure (SMILES),"AUC [1, 4] [ng·h/mL]","AUC [1, 5] [ng·h/mL]","AUC [1, 6] [ng·h/mL]","AUC [1, 7] [ng·h/mL]","AUC [1, 8] [ng·h/mL]",IC50 [2] [nM],AUC Differentiation (%) ([1]; Average),AUC Differentiation (%) ([1]; animal MK-101),AUC Differentiation (%) ([1]; animal MK-201),AUC Differentiation (%) ([1]; animal MK-301),AUC Differentiation (%) ([1]; animal MK-401),"DMPK property over enasidenib (drug exposure AUC and half-life) ([1]; monkey, 1 mg/Kg IV)",formation of hydroxylation product on aromatic ring compared to enasidenib ([3]; FIG. 3),hydroxylation on the side chain compared to enasidenib ([3]; FIG. 3),formation of de-alkylation product compared to enasidenib ([3]; FIG. 4),IC50 difference from that of enasidenib [2] [%]
"CC(C)(O)CNc1nc(Nc2ccnc(C(F)(F)F)c2)nc(-c2cccc(C(F)(F)F)n2)n1 [Enasidenib, enasidenib, reference compound]",5200,7780,3440,4290,5290,362,,,,,,,,,,
[2H]C([2H])([2H])C(O)(C([2H])([2H])[2H])C([2H])([2H])Nc1nc(Nc2ccnc(C(F)(F)F)c2)nc(-c2cccc(C(F)(F)F)n2)n1 [D8-Enasidenib],7900,8970,5810,10300,6530,360,62.0,15.3,69.1,140,23.5,superior DMPK property over enasidenib,similar,greatly reduced,significantly slowed down,≤ 10
